The source of these data is patent publication US20100137353A1, “TRICYCLIC COMPOUNDS AS ANTIBACTERIALS” (GLAXO GROUP LIMITED, priority 2007, published 2010).

Test [1] is described as follows: Whole-cell antimicrobial activity assay, broth microdilution (CLSI M7-A7). The class given is cell-based. The conditions noted are these: against a strain of at least one of the organisms listed; tested in at least one exemplified salt form; dilutions 0.016 to 16 mcg/mL; read-out: MIC (minimum inhibitory concentration). As for the experimental part: Whole-cell antimicrobial activity was determined by broth microdilution using the Clinical and Laboratory Standards Institute (CLSI) recommended procedure, Document M7-A7, “Methods for Dilution Susceptibility Tests for Bacteria that Grow Aerobically”. The compounds were tested in serial two-fold dilutions ranging from 0.016 to 16 mcg/mL.
The minimum inhibitory concentration (MIC) was determined as the lowest concentration of compound that inhibited visible growth. A mirror reader was used to assist in determining the MIC endpoint.
Compounds were evaluated against Gram-positive organisms, including Staphylococcus aureus, Streptococcus pneumoniae, Streptococcus pyogenes, Enterococcus faecalis and Enterococcus faecium.
In addition, compounds were evaluated against Gram-negative strains including Haemophilus influenzae, Moraxella catarrhalis, Escherichia coli, Pseudomonas aeruginosa, Proteus mirabilis, Enterobacter cloacae, Enterobacter aerogenes, Klebsiella pneumoniae and Stenotrophomonas maltophilia.

Test [2] has as its system Mycobacterium tuberculosis H37Rv. Put plainly: Mycobacterium tuberculosis H37Rv Inhibition Assay. The class given is cell-based. The conditions noted are these: ATCC 25618 / H37Rv, H37Rv strain (ATCC25618), Middlebrook 7H9+ADC, resazurin fluorescence readout. The procedure:
Mycobacterium tuberculosis H37Rv Inhibition Assay
The measurement of the minimum inhibitory concentration (MIC) for each tested compound was performed in 96 wells flat-bottom, polystyrene microtiter plates. Ten two-fold drug dilutions in neat DMSO starting at 400 μM were performed. Five μl of these drug solutions were added to 95 μl of Middlebrook 7H9 medium. (Lines A-H, rows 1-10 of the plate layout). Isoniazid was used as a positive control, 8 two-fold dilution of Isoniazid starting at 160 μgml^−1 was prepared and 5 μl of this control curve was added to 95 μl of Middlebrook 7H9 (Difco catalogue Ref. 271310)+ADC medium (Becton Dickinson Catalogue Ref 211887). (Row 11, lines A-H). Five μl of neat DMSO were added to row 12 (growth and Blank controls).
The inoculum was standardised to approximately 1×10^7 cfu/ml and diluted 1 in 100 in Middlebrook 7H9+ADC medium and 0.025% Tween 80 (Sigma P4780), to produce the final inoculum of H37Rv strain (ATCC25618). One hundred μl of this inoculum was added to the entire plate but G-12 and H-12 wells (Blank controls). All plates were placed in a sealed box to prevent drying out of the peripheral wells and they were incubated at 37° C. without shaking for six days. […] Fluorescence was measured (Spectramax M5 Molecular Devices, Excitation 530 nm, Emission 590 nm) after 48 hours to determine the MIC value. […]

Structures can show the parent of a compound that is named as a salt. A value given as a limit tells only on which side of the number the result lay.

On to `O=c1ccc2ncc(F)c3c2n1C[C@@]3(O)CN1CCC(NC/C=C/c2ccccn2)CC1` [Example 1, (4S)-3-Fluoro-4-hydroxy-4-[(4-{[(2E)-3-(2-pyridinyl)-2-propen-1-yl]amino}-1-piperidinyl)methyl]-4,5-dihydro-7H-pyrrolo[3,2,1-de]-1,5-naphthyridin-7-one dihydrochloride], for which the MIC in test [1] was not above 2 µg/mL.

Take `O=c1ccc2ncc(F)c3c2n1C[C@@]3(O)CN1CCC(NC/C=C/c2ccco2)CC1` [Example 2, (4S)-3-Fluoro-4-[(4-{[(2E)-3-(2-furanyl)-2-propen-1-yl]amino}-1-piperidinyl)methyl]-4-hydroxy-4,5-dihydro-7H-pyrrolo[3,2,1-de]-1,5-naphthyridin-7-one dihydrochloride]: the MIC in test [1] is not above 2 µg/mL; in test [2], not above 5.1 µg/mL.
